Test results from patent EP4624465A1, “COMPOUND SERVING AS DDR1 KINASE INHIBITOR, AND MEDICINE” (Nippon Shinyaku Co., Ltd., priority 2022, dated 2024).
Structures can show the parent of a compound that is named as a salt.

These compounds were tested against DDR1 kinase (Homo sapiens, UniProt Q08345) (assay: Evaluation of DDR1 kinase inhibition (LANCE Ultra TR-FRET kinase assay)). Details: DDR1 protein 0.5 nM, LANCE Ultra ULight-poly GAT substrate, 2 hours at room temperature, duplicate; read-out: DDR-1 IC50.
Sequence of DDR1 kinase (Q08345 19-876 isoform Q08345-2 limits assumed): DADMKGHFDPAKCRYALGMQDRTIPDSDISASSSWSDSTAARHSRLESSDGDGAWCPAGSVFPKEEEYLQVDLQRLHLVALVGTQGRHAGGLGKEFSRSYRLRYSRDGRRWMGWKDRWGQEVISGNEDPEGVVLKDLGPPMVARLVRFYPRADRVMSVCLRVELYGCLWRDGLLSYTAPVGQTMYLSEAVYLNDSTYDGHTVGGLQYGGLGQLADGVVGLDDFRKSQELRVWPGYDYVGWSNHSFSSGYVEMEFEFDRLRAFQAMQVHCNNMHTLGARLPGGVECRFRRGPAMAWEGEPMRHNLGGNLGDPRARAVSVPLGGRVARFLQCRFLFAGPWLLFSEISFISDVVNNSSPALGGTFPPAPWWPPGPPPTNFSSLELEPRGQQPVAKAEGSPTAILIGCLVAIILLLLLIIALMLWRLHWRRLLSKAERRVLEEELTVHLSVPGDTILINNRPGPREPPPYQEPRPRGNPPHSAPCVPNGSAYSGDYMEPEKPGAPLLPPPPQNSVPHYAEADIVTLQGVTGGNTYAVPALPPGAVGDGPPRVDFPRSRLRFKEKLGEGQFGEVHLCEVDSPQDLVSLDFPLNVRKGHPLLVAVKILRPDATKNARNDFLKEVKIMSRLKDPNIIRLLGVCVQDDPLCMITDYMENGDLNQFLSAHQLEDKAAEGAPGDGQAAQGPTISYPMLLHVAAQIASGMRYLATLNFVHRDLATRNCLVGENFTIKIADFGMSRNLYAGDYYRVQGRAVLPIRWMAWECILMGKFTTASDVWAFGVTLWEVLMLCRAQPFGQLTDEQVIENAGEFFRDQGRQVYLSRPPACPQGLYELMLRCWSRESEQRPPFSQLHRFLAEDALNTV
Format: biochemical
Design: purchased Carna Biosciences 08-113

IC50 [nM]	Compound
14	CC(C(=O)N1CCC[C@H]1C(F)(F)F)n1nc(C2CN(C(=O)c3ccnc(N)c3)C2)c2c(F)cc(F)cc21 (stereo partly drawn) [Compound E-103, 2-{3-[1-(2-aminopyridine-4-carbonyl)azetidin-3-yl]-4,6-difluoro-1H-indazol-1-yl}-1-[(2S)-2-(trifluoromethyl)pyrrolidin-1-yl}propane-1-one hydrochloride]
210	Cc1noc(Cn2nc(C3CN(C(=O)c4ccnc(N)c4)C3)c3c(F)cccc32)n1 [Compound E-109, 4-(3-{4-fluoro-1-[(3-methyl-1,2,4-oxadiazol-5-yl)methyl]-1H-indazol-3-yl}azetidine-1-carbonyl)pyridin-2-amine]
56	Nc1cc(C(=O)N2CC(c3nn(Cc4ccccc4C(F)(F)F)c4cccc(F)c34)C2)ccn1 [Compound E-114, 4-[3-(4-fluoro-1-{[2-(trifluoromethyl)phenyllmethyl}-1H-indazol-3-yl)azetidine-1-carbonyl]pyridin-2-amine hydrochloride]
56	Nc1cc(C(=O)N2CC(c3nn(Cc4noc(-c5cccc(C(F)(F)F)c5)n4)c4cccc(F)c34)C2)ccn1 [Compound E-117, 4-{3-[4-fluoro-1-({5-[3-(trifluoromethyl)phenyl])-1,2,4-oxadiazol-3-ylimethyl)-1H-indazol-3-yl]azetidine-1-carbonyl}pyridin-2-amine]
4.4	Cc1nc(N)sc1C(=O)N1CCC(c2nn(CC(=O)N3CCC[C@H]3C(F)(F)F)c3cccc(F)c23)CC1 [Compound E-119, 2-{3-[1-(2-amino-4-methyl-1,3-thiazole-5-carbonyl)piperidin-4-yl]-4-fluoro-1H-indazol-1-yl}·1-[(2S)-2-(trifluoromethyl)pyrrolidin-1-yl]ethan-1-one]
60	Nc1cc(C(=O)N2CC(c3nn(CC(=O)N4CCC[C@H]4C(F)(F)F)c4cccnc34)C2)ccn1 [Compound E-120]
140	Cc1nc(N)sc1C(=O)N1CC(c2nn(CC(=O)N3CCC[C@H]3C(F)(F)F)c3cccnc23)C1 [Compound E-122]
8.8	Nc1cc(C(=O)N2CC(c3nn(CC(=O)N4CCOC[C@H]4C(F)(F)F)c4cc(F)cc(F)c34)C2)ccn1 [Compound E-123, 2-{3-[1-(2-aminopyridine-4-carbonyl)azetidin-3-yl]-4,6-difluoro-1H-indazol-1-yl}-1-[(3S)-3-(trifluoromethyl)morpholin-4-yl]ethan-1-one]
11	CC1(C)CCCN1C(=O)Cn1nc(C2CN(C(=O)c3ccnc(N)c3)C2)c2c(F)cc(F)cc21 [Compound E-127, 2-{3-[1-(2-aminopyridine-4-carbonyl)azetidin-3-yl]-4,6-difluoro-1H-indazol-1-yl}-1-(2,2-dimethylpyrrolidin-1-yl)ethan-1-one]
180	Nc1cc(C(=O)N2CC(c3nn(Cc4nnc(C(F)(F)F)o4)c4cccc(F)c34)C2)ccn1 [Compound E-128, 4-[3-(4-fluoro-1-{[5-(trifluoromethyl)-1,3,4-oxadiazol-2-yl]methyl}-1H-indazol-3-yl)azetidine-1-carbonyl}pyridin-2-amine]

Second part, the compound before the results:

Compound	IC50 [nM]
CC1(c2nn(CC(=O)N3CCC[C@H]3C(F)(F)F)c3ccccc23)CN(C(=O)c2ccnc(N)c2)C1 [Compound E-6, 2-{3-[1-(2-aminopyridine-4-carbonyl)-3-methylazetidin-3-yl]-1H-indazol-1-yl}-1-[(2S)-2-(trifluoromethyl)pyrrolidin-1-yl]ethan-1-one]	7.1
Cc1nc(N)sc1C(=O)N1CC(c2nn(CC(=O)N3CCOCC3(C)C)c3ccccc23)C1 [Compound E-7, 2-{3-[1-(2-amino-4-methyl-1,3-thiazole-5-carbonyl)azetidin-3-yl]-1H-indazol-1-yl}-1-(3,3-dimethylmorpholin-4-yl)ethan-1-one]	15
Nc1cc(C(=O)N2CCC(c3nn(Cc4ccc(C(F)(F)F)cn4)c4cccc(F)c34)CC2)ccn1 [Compound E-9, 4-[4-(4-fluoro-1-{[5-(trifluoromethy)pyridin-2-yl]methyl}-1H-indazol-3-yl)piperidine-1-carbonyl]pyridin-2-amine]	14
Nc1cc(C(=O)N2CCC(c3cn(CC(=O)N4CCC[C@H]4C(F)(F)F)c4cccc(F)c34)CC2)c(F)cn1 [Compound E-10, 2-{3-[1-(2-amino-5-fluoropyridine-4-carbonyl)piperidin-4-yl]-4-fluoro-1H-indol-1-yl}-1-[(2S)-2-(trifluoromethyl)pyrrolidin-1-yl]ethan-1-one]	0.3
Nc1cc(C(=O)N2CC(c3nn(Cc4noc(C5(C(F)(F)F)CC5)n4)c4cncc(F)c34)C2)ccn1 [Compound E-14, 4-{3-[4-fluoro-1-({5-[1-(trifluoromethyl)cyclopropyl]-1,2,4-oxadiazol-3-yl)methyl)-1H-pyrazolo[3,4-c]pyridin-3-yl]azetidine-1-carbonyl}pyridin-2-amine]	5.1
O=C(c1ccnc2[nH]ncc12)N1CC(c2nn(CC(=O)N3CCC[C@H]3C(F)(F)F)c3cc(F)cc(F)c23)C1 [Compound E-17]	0.3
Nc1cc(C(=O)N2CC(c3nn(Cc4nnc(-c5ccc(F)cc5)o4)c4cccc(F)c34)C2)ccn1 [Compound E-20, 4-[3-(4-fluoro-1-{[5-(4-fluorophenyl)-1,3,4-oxadiazol-2-yl]methyl}-1H-indazol-3-yl)azetidine-1-carbonyl]pyridin-2-amine]	84
Nc1cc(C(=O)N2CC(c3nn(CC(=O)N4CCC[C@H]4C(F)(F)F)c4c3CC(F)(F)CC4)C2)c(F)cn1 [Compound E-25]	9
O=C(Cn1nc(C2CN(C(=O)c3ccnc(NC4COC4)c3)C2)c2c(F)cc(F)cc21)NCC(F)(F)F [Compound E-32, 2-[4,6-difluoro-3-(1-{2-[(oxetan-3-yl)amino]pyridine-4-carbonyl}azetidin-3-yl)-1H-indazol-1-yl]-N-(2,2,2-trifluoroethyl)acetamide]	160
Nc1cc(C(=O)N2CC(c3nn(CC(=O)N4CCC[C@@H]4CO)c4cc(F)cc(F)c34)C2)ccn1 [Compound E-36, 2-{3-[1-(2-aminopyridine-4-carbonyl)azetidin-3-yl]-4,6-difluoro-1H-indazol-1-yl}-1-[(2R)-2-(hydroxymethyl)pyrrolidin-1-yl]ethan-1-one]	270
Nc1cc(C(=O)N2CC(c3nn(Cc4cn(CC5COC5)nn4)c4cccc(F)c34)C2)ccn1 [Compound E-38]	190
Cc1c(C(=O)N2CC(c3nn(CC(=O)N4CCC[C@H]4COC(F)(F)F)c4cncc(F)c34)C2)ccnc1N [Compound E-44, 2-{3-[1-(2-amino-3-methylpyridine-4-carbonyl)azetidin-3-yl]-4-fluoro-1H-pyrazolo[3,4-c]pyridin-1-yl]-1-[(2S)-2-[(trifluoromethoxy)methyl]pyrrolidin-1-yl]ethan-1-one di-p-toluenesulfonate]	9.2
Nc1cc(C(=O)N2CC=C(c3nn(CC(=O)N4CCC[C@H]4C(F)(F)F)c4ccccc34)CC2)c(F)cn1 [Compound E-47, 2-{3-[1-(2-amino-5-fluoropyridine-4-carbonyl)-1,2,3,6-tetrahydropyridin-4-yl]-1H-indazol-1-yl}-1-[(2S)-2-(trifluoromethyl)pyrrolidin-1-yl]ethan-1-one]	140
Nc1cc(C(=O)N2CCC(c3nn(CC(=O)N4CCC[C@H]4C(F)(F)F)c4ccccc34)CC2)c(F)cn1 [Compound E-49, 2-{3-[1-(2-amino-5-fluoropyridine-4-carbonyl)piperidin-4-yl]-1H-indazol-1-yl}-1-[(2S)-2-(trifluoromethyl)pyrrolidin-1-yl]ethan-1-one]	9.9
Nc1cc(C(=O)N2CC(c3nn(Cc4cn(CC(F)(F)F)nn4)c4cccc(F)c34)C2)ccn1 [Compound E-52, 4-[3-(1-{[1-(2,2,2-trifluoroethyl)-1H-1,2,3-triazol-4-yl]methyl]-4-fluoro-1H-indazol-3-yl)azetidine-1-carbonyl]pyridin-2-amine hydrochloride]	43
Nc1cc(C(=O)N2CC(c3nn(CC(=O)N4CCC[C@H]4COC(F)(F)F)c4cc(F)cc(F)c34)C2)ccn1 [Compound E-56, 2-{3-[1-(2-aminopyridine-4-carbonyl)azetidin-3-yl]-4,6-difluoro-1H-indazol-1-yl}-1-[(2S)-2-[(trifluoromethoxy)methyl]pyrrolidin-1-yl]ethan-1-one]	0.8
Nc1cc(C(=O)N2CC(c3nn(CC4CCC(F)(F)CC4)c4cc(F)cc(F)c34)C2)ccn1 [Compound E-57, 4-(3-{1-[(4,4-difluorocyclohexyl)methyl]-4,6-difluoro-1H-indazol-3-yl}azetidine-1-carbonyl)pyridin-2-amine]	140
Nc1cc(C(=O)N2CC(c3nn(CC(=O)N4CCC[C@H]4COC(F)(F)F)c4cncc(F)c34)C2)c(F)cn1 [Compound E-58, 2-{3-[1-(2-amino-5-fluoropyridine-4-carbonyl)azetidin-3-yl]-4-fluoro-1H-pyrazolo(3,4-c]pyridin-1-yl}-1-[(2S)-2-[(trifluoromethoxy)methyl]pyrrolidin-1-yl]ethan-1-one di-p-toluenesulfonate]	4.4
Nc1cc(C(=O)N2CC(c3nn(CC(=O)N4CCC[C@@H]4C(F)(F)F)c4ccccc34)C2)c(F)cn1 [Compound E-60, 2-{3-[1-(2-amino-5-fluoropyridine-4-carbonyl)azetidin-3-yl]-1H-indazol-1-yl}-1-[(2R)-2-(trifluoromethyl)pyrrolidin-1-yl]ethan-1-one]	6.5
Nc1cc(C(=O)N2CC(c3nn(CC(=O)NCC(F)(F)F)c4cccc(Cl)c34)C2)ccn1 [Compound E-62, 2-{3-[1-(2-aminopyridine-4-carbonyl)azetidin-3-yl}-4-chloro-1H-indazol-1-yl}-N-(2,2,2-trifluoroethyl)acetamide]	9.3
Cc1nccc2c1c(C1CN(C(=O)c3ccnc(NC4CC4)c3)C1)nn2CC(=O)N1CCC[C@H]1C(F)(F)F [Compound E-93, 2-(3-{1-[2-(cyclopropylamino)pyridine-4-carbonyl]azetidin-3-yl}-4-methyl-1H-pyrazolo[4,3-c]pyridin-1-yl)-1-[(2S)-2-(trifluoromethyl)pyrrolidin-1-yl]ethan-1-one]	110
Cc1c(C(=O)N2CC(c3nn(CC(=O)N4CCC[C@H]4C(F)(F)F)c4ccnc(C)c34)C2)ccnc1N [Compound E-94]	150
